Assay results: US12678445B2, “Methods for treating glioblastoma” (BOARD OF REGENTS, THE UNIVERSITY OF TEXAS SYSTEM, priority 2020, dated 2026)

Columns and labels:
[1] = test system: murine GBM cell lines (GL261); experiment: GBM (GL261) tumor bearing mice: tumor growth and survival; type: in vivo; conditions: FIG. 4
Source text: (§1) To test this hypothesis, the inventors crossed LysM^cre (Jackson Laboratory. 004781) and KDm6B^fl/fl (Jackson Laboratory, 029615) mice to generate LysM^creKDm6B^fl/fl mice. The inventors inoculated murine GBM cell lines (GL261) into the LysM^creKDm6B^fl/fl mice (FIG. 5). […] The pre-clinical data provide a strong rationale of testing KDM6B inhibitor in clinic in combination with immune checkpoint therapy.

[2] = test system: myeloid cells; experiment: Macrophage / myeloid cell phenotype in GBM tumor bearing mice; type: in vivo; conditions: compared with myeloid specific depletion of KDM6B (increasing type I and type II IFN responses and antigen presenting pathways)
Source text: as §1

CCOC(=O)CCNc1cc(N2CCc3ccccc3CC2)nc(-c2ccccn2)n1 [GSK-J4]
survival [1]: improved survival
tumor growth [1]: attenuated tumor growth
changes of macrophage phenotype [2]: could recapitulate the changes of macrophage phenotype
